Like-named read-outs stand apart in the source and are kept apart here.
Tests used:
[1] = In vivo pharmacokinetic study of Sel in plasma and brain; conditions: for AUC(0-t): AUC0–480min; for AUC(0-inf): AUC0–∞; for k el: Kel
Description: All animal experiments were conducted in compliance with the guidelines of the ethical committee, Faculty of Pharmacy, University of Sadat City (approval number RERC-FOP-USC-24-02-08). Adult male albino rats (200 g ± 10%) were randomly divided into two groups each of 48 animals. Animals were subjected to anesthesia using sodium thiopental via intraperitoneal injection (IP). […] At each time point, blood samples were collected from 6 animals by cardiac puncture on heparinized tube and then animals were sacrificed. Blood samples were centrifuged at 9000 rpm and the obtained plasma was stored at −80 °C until analysis. The whole brain was isolated, washed with saline, and homogenized at 10,000 rpm in ice-cold PBS (pH 7.4) for 5 min. The homogenate obtained was centrifuged at 9000 rpm for 15 min. Sel concentration in plasma and brain was quantified using LCMS/MS [49, 50]. The maximum drug concentration (Cmax), time required to achieve Cmax (Tmax), area under the concentration-time curve (AUC0–480min and AUC0–∞), mean residence time (MRT), and elimination rate constant (Kel) in both plasma and brain were calculated. All pharmacokinetics data were calculated using the pharmacokinetic software PK Solver-Add Ins for Microsoft Excel 2007. Additionally, absolute bioavailability as well as the Direct-Transport Percentage (DTP%) and Drug-Targeting Efficiency percentage (DTE%) were calculated using the following equations [51]:DTE = (AUCbrain/AUCplasma) IN/(AUCbrain/AUCplasma) IV × 100(2) DTP% = BIN − BX/BIN × 100(3) where BX = BIV/PIV × PIN
BX is the brain AUC0–480min fraction contributed by systemic circulation, following IN administration; BIV is the brain AUC0–480min following IV administration; PIV is the plasma AUC0–480min following IV administration; BIN is the brain AUC0–480min following IN administration; PIN is the plasma AUC0–480min following IN administration.

Parkinson's model rats [2] = assay: Stride length measurement, rotenone-induced PD rat model; format: in vivo; conditions: day 30
Description: (§1) PD was simulated in rats by IP injection of rotenone (3 mg/kg/day) for 11 days. […] On day 30 of the experiment, stride length was recorded based on the spatial distance a paw travels during a stride. Animal forepaws were dipped in black non-toxic ink. The length of forelimb and hindlimb steps in the left and right limbs were measured while walking on a clean piece of paper. Stride length was defined as the distance between each step on the same side of the animal’s body, measured from the mid-digit toe of the first step to the heel of the second.

catalase = format: in vivo, rats
Description: as §1
(§2) On day 30 of the experiment, rats were scarified and brain tissues were collected. Brain tissues were homogenized as previously described and the concentration of dopamine in the brain homogenate was assessed by HPLC-equipped with a fluorescence detector set at excitation/emission wavelengths of 280/315 nm as described elsewhere. Catalase activity in brain homogenate was measured using colorimetric assay at 570 nm using hydrogen peroxide.

dopamine = format: in vivo, rats
Description: as §1, §2

Parkinson's model rats [3] = assay: Catalepsy test (bar method), rotenone-induced PD rat model; format: in vivo; conditions: scale 0 to 5
Description: as §1
The catalepsy score was determined using the bar method, which involved measuring the time that rat consumed to remove its forepaws from the rod. The rats were rated on a five-point scale: 0 (0–5 s), 1 (6–15 s), 2 (16–25 s), 3 (26–35 s), 4 (36–60 s), and 5 (>60 s). The rat’s forepaws were gently put on a steel rod positioned 10 cm above the bench. The recording begins when cataleptic animals have been held in this position for at least 30 s (the adapting time).

Parkinson's model rats [4] = assay: Open field test, rotenone-induced PD rat model; format: in vivo; conditions: 60-minute observation
Description: as §1
An open-field device with 16 sub-squares (40 × 40 × 30 cm; Accuscan Instruments, Columbus, OH, USA) was utilized to examine forelimb and hindlimb locomotor impairments in rats following 30 days of PD induction. Prior to the test, each rat was left in its home cage in the testing area for 2 h before being gently carried by the base of its tail to the center of the open field arena. The animal behavior was then studied for 60 min. To measure the rat’s ambulatory distance, the total number of squares crossed was recorded. Additionally, one of the non-motor characteristics of PD that has been investigated is anxiety, which is indexed by the preference exploration of the open field’s periphery. The number of individuals crossing the center zone was noted.

Parkinson's model rats [5] = assay: Paw placement and coverage, rotenone-induced PD rat model; format: in vivo; conditions: day 30
Description: as §1
On day 30, the distance between the location of the behind paw and the previously placed contralateral front paw was measured during the same step cycle while the area covered when the forelimbs or hindlimbs perform a stride was recorded as the coverage area.

MAO-B = format: in vivo, rats; conditions: rotenone 3 mg/kg/day IP 11 days; treatment days 12 and 20; day 30; ELISA
[6] = male, albino, rat, in vivo, iv, 1 mg/kg
[7] = male, albino, rat, in vivo, iv, 1 mg/kg, brain, rat brain, Sel 1 mg/kg, route as in label
[8] = male, albino, rat, in vivo, iv, 1 mg/kg, plasma, rat plasma, Sel 1 mg/kg, route as in label
[9] = rotenone 3 mg/kg/day IP 11 days, treatment days 12 and 20, day 30, mean ± SE (n = 6)

C#CCN(C)[C@H](C)Cc1ccccc1 [IV Sel solution, Selegiline]
Tmax [1, 6]: 30 min | bioavailability [1, 6]: 100% | AUC(0-t) [1, 7]: 850 ± 60 ng·h/mL | AUC(0-t) [1, 8]: 1160 ± 90 ng·h/mL | AUC(0-inf) [1, 7]: 1220 ± 150 ng·h/mL | AUC(0-inf) [1, 8]: 1540 ± 210 ng·h/mL | k el [1, 7]: 4.44e-05 s⁻¹ | k el [1, 8]: 4.72e-05 s⁻¹ | MRT [1, 7]: 4.56 ± 0.75 h | MRT [1, 8]: 4.22 ± 0.84 h | Cmax, brain ([1]; rat brain, Sel 1 mg/kg, route as in label): 0.21 ± 0.03 µg/mL | Stride length, left forelimb (Parkinson's model rats [2]): 119.5 ± 2.66 mm | Catalase activity in brain tissue (catalase; rat, in vivo): 24 ± 0.82 U/mg protein | Dopamine concentration in brain tissue (dopamine; rat, in vivo): 125.33 ± 3.71 ng/g | Catalepsy score (Parkinson's model rats [3]): 2.11 ± 0.11 | Number of center crossings (Parkinson's model rats [4]): 8.33 ± 1.49 | Paw placement, left side (Parkinson's model rats [5]): 12 ± 0.57 mm | Paw placement, right side (Parkinson's model rats [5]): 11.66 ± 1.05 mm

C=C(C)[C@H]1Cc2c(ccc3c2O[C@@H]2COc4cc(OC)c(OC)cc4[C@@H]2C3=O)O1 [rotenone]
Stride length, left forelimb (Parkinson's model rats [2]): 102 ± 4.2 mm | Catalase activity in brain tissue (catalase; [9]): 12 ± 0.85 U/mg protein | Dopamine concentration in brain tissue (dopamine; [9]): 49.66 ± 3.23 ng/g | Catalepsy score (Parkinson's model rats [3]): 4.78 ± 0.17 | Number of center crossings (Parkinson's model rats [4]): 3.00 ± 1.91 | Paw placement, left side (Parkinson's model rats [5]): 24.66 ± 2.02 mm | Paw placement, right side (Parkinson's model rats [5]): 30.33 ± 2.95 mm | MAO-B level in brain tissue (MAO-B): 256.33 ± 25.6 ng/g

From article PMC11859980, “Tailored Intranasal Albumin Caged Selegiline-α Synuclein siRNA Liposome with Improved Efficiency in Parkinson’s Model” (Pharmaceutics, 2025)
